Measurements: US20160324795A1, “SILIBININ NANOPARTICLE AND A METHOD OF TREATING HEPATITIS C THEREOF” (Kaohsiung Medical University, priority 2014, published 2016)

What was measured:
hepatitis C virus = experiment: HCVcc infectivity in Huh-7 cells infected by hepatitis C virus (luminescence); type: cell-based
Procedure: Huh-7 cells are infected by hepatitis C virus for 3 hours. After infection, surplus hepatitis C virus are washed, followed by adding a medium with 10% fetal bovine serum (FBS) and the treatment shown in TABLE 5 for 72 hours. The resulting media is collected and the luminescence level is analyzed to evaluate HCVcc infectivity. Specifically, group F2 is treated with dimethyl sulfoxide (DMSO), group F3 is treated with interferon-α (IFN-α), a conventional medication for treating hepatitis C, group F4 is treated with PVP, group F5 is treated with the conventional silibinin dissolved in DMSO, group F6 is treated with the conventional silibinin dissolved in water, and group F7 is treated with the silibinin nanoparticle of the invention dissolved in water.

[1] = Solubility in solutions mimicking blood (pH 7.4) and stomach (pH 1.2); type: physicochemical; details: pH 7.4, after 120 minutes
From the text: A solution with pH 7.4 mimics the environment of the blood and a solution with pH 1.2 mimics the environment of the stomach.
That is, compared with the conventional silibinin, the silibinin nanoparticle of the invention has improved blood solubility.

[2] = tested on: Sprague-Dawley (SD) male rats; experiment: Safety test in SD rats, administration via gastrostomy for 15 days; details: rat, in vivo
Procedure: (§1) Sprague-Dawley (SD) male rats (6 week-old) purchased from BioLASCO Taiwan Co., Ltd. are used in trials (D) and (E). The SD rats are housed on a 12-hours light and 12-hours dark cycle in an animal room kept at a constant temperature of 25±1° C. and constant humidity of 55±5%. The SD rats are housed for several days before being administered the silibinin nanoparticle of the invention via gastrostomy in a dosage shown in TABLE 3.
With reference to FIG. 6B, after being administered the silibinin nanoparticle of the invention for 15 days, all of the SD rats of groups D0 to D2 show a similar trend of increasing body weights.

[3] = Serum silibinin concentration in SD rats by HPLC; type: in vivo, rat
Procedure: as §1
After administration for 5, 15, 30, 60, 120, 360, 720, and 1440 minutes, 0.5 mL of blood samples are collected. The blood samples stand at room temperature for coagulation, followed by centrifugation to obtain serum. High-performance liquid chromatography (HPLC) is performed to analyze serum silibinin concentration.

[4] = Tissue silibinin concentration in SD rats 24 hours after administration by HPLC; type: in vivo, rat
Procedure: as §1
Furthermore, after being administered silibinin or silibinin nanoparticle for 24 hours, the SD rats of groups E1 and E2 are dissected and organs of heart, liver, spleen, lung, and kidney are collected. The collected organs are homogenized by a saline buffer, followed by extraction of silibinin with acetonitrile. The extracted silibinin is analyzed by HPLC.

[5] = 100 mg/kg silibinin (nanoparticle 200 mg/kg with 100 mg of silibinin)

Compound	HCVcc infectivity (hepatitis C virus; 72 hours, dissolved in DMSO) [log10 RLU]	dissolution in solution mimicking the environment of the blood [1]	safe dosage (as silibinin content) [2] [mg/kg body weight per day]	highest level of serum silibinin concentration [3, 5] [ng/mL]	time to highest level of serum silibinin concentration [3, 5] [min]	concentration at 1440 minutes ([3]; male, Sprague-Dawley, rat, serum, 100 mg/kg body weight/day, 1440 minutes after administration) [ng/mL]	tissue distribution of silibinin (heart, liver, spleen, lung, kidney) [4]	HCVcc infectivity (hepatitis C virus; 72 hours treatment) [log10 RLU]
COc1cc(C2Oc3cc(C4Oc5cc(O)cc(O)c5C(=O)C4O)ccc3OC2CO)ccc1O (centres unmarked) [silibinin, 3,5,7-trihydroxy-2-[3-(4-hydroxy-3-methoxyphenyl)-2-(hydroxymethyl)-2,3-dihydro-1,4-benzodioxin-6-yl]-2,3-dihydrochromen-4-one]	4.9	cannot dissolve	5	170	15	0	silibinin only exists in the lung	–
IFN-α	–	–	–	–	–	–	–	4.2
